In US20250099409A1, “TOPICAL THERAPEUTIC” (Beta Biofuel Solutions, LLC, priority 2022, published 2025):

Experiments:
[1] = tested on: severe mouth sores, pain, and skin eruptions; assay: Example 7: Patient G, oral spray in cancer patient on Taxotere and Carboplatin chemotherapy; format: in vivo, human
Method: Set up: The trial consisted of administering a topical therapeutic spray to a cancer patient receiving Taxotere and Carboplatin chemotherapy. The side effects of cancer treatment presented the patient with severe mouth sores, pain, and skin eruptions which prevented regular mastication and intake of food and some beverages. Patient G's tastebuds were also severely affected, and the taste was unreliable. […] About 250 mg/L concentration of sodium pyruvate oral spray was administered inside the mouth and throat at 1 ml per spray, two to three sprays per administration. […] The product was used ad hoc to provide continuous comfort as saliva reintroduced the chemicals causing discomfort. […] However, issues with taste were not improved with the topical therapeutic spray.

[2] = tested on: rhinitis, and burning in the nose and throat resulting from secondhand cigarette smoke; assay: Example 1: Patient A, topical therapeutic spray to nasal cavities and throat; format: in vivo, human
Method: Set up: The trial consisted of administering a topical therapeutic spray to a patient suffering from rhinitis, and burning in the nose and throat resulting from persistent and long-term exposure to secondhand cigarette smoke. About 250 mg/L concentration of sodium pyruvate incorporated spray was administered to the nasal cavities and throat at about 1 ml per spray, administered two to three sprays per administration.
The spray treatment was re-applied a couple of hours later. […] The spray was applied prophylactically before bed.

[3] = tested on: epidermal disturbances from psoriatic plaques; assay: Example 2: Patient B, topical therapeutic wipe on psoriatic plaques on the back; format: in vivo, human
Method: (§1) Set up: The trial consisted of administering a topical therapeutic wipe to patients suffering from epidermal disturbances from psoriatic plaques. […] About 250 mg/L concentration of sodium pyruvate formulated with glycerin emollient imbued was administered to the affected area via an imbued wipe. The treatment was applied twice a day, once in the morning and once in the evening.

[4] = tested on: epidermal disturbances from psoriatic plaques; assay: Example 3: Patient C, roll-on on psoriatic plaques behind ears and scalp; format: in vivo, human
Method: as §1, with “spray” for “wipe”, “a patient” for “patients”, “emollient” for “emollient imbued”, “roll-on.” for “wipe.”

[5] = tested on: redness and burning on the general epidermis and deep muscle pain post-radiation therapy; assay: Example 4: Patient D, spray and wipe in breast cancer patient post-radiation therapy; format: in vivo, human
Source text: Set up: The trial consisted of administering a topical therapeutic spray and wipe to a breast cancer patient suffering from redness and burning on the general epidermis and deep muscle pain post-radiation therapy treatment. The patient received 30 daily radiation treatments in just over a month. […] The topical therapeutic spray was used afterwards ad hoc.

[6] = tested on: severe burning, itching, and peeling in the urethral, vaginal, and anal areas; assay: Example 5: Patient E, imbued wipe in patient on Taxotere and Carboplatin chemotherapy with monoclonal antibody infusion; format: in vivo, human; conditions: continued administration of wipe
Method: Set up: The trial consisted of administering a topical therapeutic imbued wipe to a patient receiving a concurrent Taxotere and Carboplatin chemotherapy, with monoclonal antibody infusion treatments. The side effects of cancer treatment presented the patient with severe burning, itching, and peeling in the urethral, vaginal, and anal areas due to the elimination of the chemicals via urine and stools. About 250 mg/L concentration of sodium pyruvate formulated with glycerin emollient wipe was used to clean the affected areas after elimination, in addition to when the discomforts were present.
Patient E continued using the topical treatment concurrently with cancer therapy, and for about a month after.

[7] = tested on: redness, itchy splotches on the underside of the body, and fur-less areas around the ears due to ragweed pollen sensitivity; assay: Example 6: Patient F, spray on dog with ragweed pollen sensitivity; format: in vivo, Jack Russel Terrier
Method: Set up: The trial consisted of administering a topical therapeutic spray to a 5-year-old Jack Russel Terrier suffering from redness, itchy splotches on the underside of the body, and fur-less areas around the ears due to ragweed pollen sensitivity. […] After cleaning with water and drying the affected areas, about 250 mg/L concentration of sodium pyruvate spray formulated with glycerin was applied to the undercarriage and ears.
Summary: After the first administration, the redness subsided, and the dog relaxed within 15 minutes. The treatment was administered after each time the dog went outside and continued throughout the ragweed pollen season.

[8] = tested on: moderate sunburn on the face, shoulders, and arms; assay: Example 8: Patient H, spray on moderate sunburn; format: in vivo, human
Method: Set up: The trial consisted of administering a topical therapeutic spray to a patient with moderate sunburn on the face, shoulders, and arms early in the summer season while working on a field project. The patient had used sunscreen, but due to the prolonged exposure, the effects of the sunburn were present. The face was particularly red as it was directly exposed to ultraviolet (UV) radiation and not covered by clothing. About 250 mg/L concentration of sodium pyruvate formulated with glycerin emollient spray was applied to the affected areas.
The spray was applied for another day until the redness subsided.

[9] = tested on: redness, burning, and skin inflammation after exposure to irritating vegetation, e.g., poison ivy; assay: Example 9: Patient I, spray after exposure to irritating vegetation; format: in vivo, human; conditions: about 250 mg/L with glycerin emollient spray, after the first administration
Method: The affected area was cleaned with cold water without soap to remove the oils and waxes transferred from the plant. About 250 mg/L concentration of sodium pyruvate formulated with glycerin emollient spray was applied to the affected areas of the general epidermis.
The topical therapeutic spray was readministered ad hoc depending on the severity of the exposure.

[10] = tested on: burning throat due to atmospheric dryness, allergic reaction, or disease state reaction; assay: Example 10: Patient J, oral spray for burning throat; format: in vivo, human; conditions: about 250 mg/L oral spray, 1 ml per spray, two to three sprays, after the first administration
Method: Set up: The trial consisted of administering a topical therapeutic spray to a patient suffering from a burning throat due to atmospheric dryness, allergic reaction, or disease state reaction. About 250 mg/L concentration of sodium pyruvate oral spray was administered inside the mouth and throat at 1 ml per spray, two to three sprays per administration.
The product was used ad hoc to provide continuous comfort.

Compound: O=C([O-])O.[Na+] [baking soda]
- alleviation of mouth sores, pain and skin eruptions ([1]; applied to the affected areas as recommended, before the topical therapeutic): did little to alleviate the problem

Compound: CC(=O)C(=O)[O-].[Na+] [sodium pyruvate, 2-oxopropanoic acid sodium salt]
- effect of the second treatment on burning ([2]; about 250 mg/L spray re-applied a couple of hours later): complete alleviation of the burning to both the nose and throat
- time to reduced burning or itching in the affected nasal and throat areas ([2]; about 250 mg/L spray, about 1 ml per spray, two to three sprays, after the first administration): ≤ 15 min
- recurrence of pain and burning ([2]; spray also applied prophylactically before bed): never returned
- outcome with continuous administration ([3]; about 250 mg/L with glycerin emollient, imbued wipe, twice a day): itching and burning did not return, and the skin surface returned to normal form
- time to reduced burning or itching ([3]; about 250 mg/L with glycerin emollient, imbued wipe, twice a day, after administration): ≤ 15 min
- outcome when treatment was interrupted ([3]; treatment interrupted): the plaques returned along with itching and burning
- outcome with continuous administration ([4]; about 250 mg/L with glycerin emollient, imbued roll-on, twice a day): itching and burning did not return and the skin surface returned to normal form
- time to reduced burning and itching ([4]; about 250 mg/L with glycerin emollient, imbued roll-on, twice a day, after administration): ≤ 15 min
- outcome when administration was interrupted ([4]; administration interrupted): the plaques returned along with itching and burning
- time to reduction in burning ([5]; about 250 mg/L with glycerin emollient, after the first administration via an imbued cloth wipe): ≤ 30 min
- blistering to the skin ([5]; about 250 mg/L with glycerin emollient, imbued cloth wipe): without any blistering to the skin
- browning of the affected area (remark of radiation oncologist at follow-up visits) ([5]; wipe, then spray ad hoc): dissipated more rapidly than usual
- sloughing of damaged skin [6]: ceased within a few days of continued administration
- time until the redness subsided and the dog relaxed ([7]; about 250 mg/L spray with glycerin on undercarriage and ears, after the first administration): ≤ 15 min
- outcome when administration was interrupted ([7]; during the pollen season, administration interrupted): the itching, redness, and scratching returned
- time to almost complete relief of pain and burn ([1]; about 250 mg/L oral spray, 1 ml per spray, two to three sprays, after the first administration): ≤ 30 min
- consumption of food and drinks ([1]; oral spray used ad hoc): able to regularly consume food and drinks without discomfort
- issues with taste ([1]; oral spray used ad hoc): not improved
- sores, pain and discomfort with use of the spray ([1]; oral spray used ad hoc): the sores resolved, and the pain and discomfort were managed
- time to reduced burning ([8]; about 250 mg/L with glycerin emollient spray, after the first administration): ≤ 15 min
- blistering and peeling of the skin due to sunburn ([8]; spray applied for another day until the redness subsided): aided in the prevention of blistering and peeling
- time to reduced burning and itching [9]: ≤ 15 min
- time to reduced burning, itching, and general discomfort [10]: ≤ 15 min
